In general, solubility refers to the dissolved amount per volume that the medium holds.

Data on two molecules can be found in patent US10723726B2, “Solid forms of (Z)-4-(5-((3-benzyl-4-oxo-2-thioxothiazolidin-5-ylidene)methyl)furan-2-yl)benzoic acid” (GB006, INC., priority 2015, dated 2020).

The test system of series [1] is murine melanoma B16-F10 tumors. Description: Murine melanoma B16F10 allograft efficacy (Example 20). It counts as in vivo, C57BL/6 mice.
Series [2] is described as follows: Solubility estimation by aliquot addition and temperature cycling. It counts as physicochemical. The following applies: for solubility: thermodynamic from solid, 20° C., read-out: Approx. solubility. The procedure:
Aliquots of the test solvent were added to an accurately weighed sample (−10 mg) of LA1 at ambient temperature. The aliquot volumes were typically 200-1000 μL. Complete dissolution of the test material was determined by visual inspection. The solubility was estimated from these experiments based on the total solvent used to provide complete dissolution.
First, the samples were heated from 20° C. to within 3° C. of solvent boiling point (or 100° C., whichever was lower) at 0.5° C./minute; then cooled to 20° C. at 0.2° C./minute while stirring at 800 rpm.
From the infrared (IR) transmission data of the sample vials, dissolution and precipitation events were recorded as the point of complete transmission of IR and the onset of turbidity by IR respectively. Selected samples were also agitated on an orbital shaker at 50° C. and visually observed for dissolution.

“Also recorded” adds a separate entry of the source. Where a name gives a salt, the structure may show the parent alone. Read-outs that look alike come from different tables or passages of the source. Some results are limits rather than exact numbers.

Regarding `O=C(O)c1ccc(-c2ccc(/C=C3\SC(=S)N(Cc4ccccc4)C3=O)o2)cc1` [LA1 choline salt], the “growth inhibition of B16-F10 tumors as compared to vehicle control” value in series [1] (3-100 mg/kg orally) was 43-68%. Further, the tumor volume result in series [1] (3-100 mg/kg, FIG. 24) is listed as “decreased tumor volume in a dose dependent manner”.
`O=C(O)c1ccc(-c2ccc(/C=C3\SC(=S)N(Cc4ccccc4)C3=O)o2)cc1` [LA1, (Z)-4-(5-((3-benzyl-4-oxo-2-thioxothiazolidin-5-ylidene)methyl)furan-2-yl)benzoic acid]: the dissolution upon heating in series [2] (DMF, 73° C.) is on record as 10 mg/mL. Moreover, in series [2] (all solvents and solvent mixtures tested), the “solubility by aliquot addition, overall” value is reported as “insoluble in all solvents tested; also recorded: poor solubility in all solvents tested”. Also, the solubility in series [2] (aqueous with cosolvent or surfactant or cyclodextrin, DMF:water (1:1)) was less than 10000 µg/mL; in series [2] (organic solvent or mixture, DMF:MeOH (1:1)), less than 10000 µg/mL; in series [2] (organic solvent or mixture, DMF:THF (1:1)), less than 7000 µg/mL; in series [2] (organic solvent or mixture, MeOH:ACN:dioxane (1:1:1)), less than 10000 µg/mL; in series [2] (organic solvent or mixture, MeOH:acetone (1:1)) it was less than 10000 µg/mL; in series [2] (organic solvent or mixture, THF:Acetone (1:1)) it was less than 10000 µg/mL. Further, the solubility was less than 10000 µg/mL in series [2] (organic solvent or mixture, THF:MeOH (1:1)); less than 10000 µg/mL in series [2] (organic solvent or mixture, THF); less than 10000 µg/mL in series [2] (organic solvent or mixture, acetone); less than 10000 µg/mL in series [2] (organic solvent or mixture, acetonitrile); less than 10000 µg/mL in series [2] (organic solvent or mixture, anisole); less than 10000 µg/mL in series [2] (organic solvent or mixture, dichloromethane). Moreover, the solubility in series [2] (organic solvent or mixture, dimethylformamide) is less than 10000 µg/mL; in series [2] (organic solvent or mixture, hexafluoroisopropanol), less than 10000 µg/mL; in series [2] (organic solvent or mixture, methanol), less than 10000 µg/mL.
